Patent US20240189449A1, “LIPID NANOPARTICLES AND POLYNUCLEOTIDES ENCODING ORNITHINE TRANSCARBAMYLASE FOR THE TREATMENT OF ORNITHINE TRANSCARBAMYLASE DEFICIENCY” (ModernaTX, Inc., priority 2021, published 2024)

Legend:
Sprague Dawley rats [1] = test: NPI-Luciferase expression, ex vivo liver bioluminescence, Sprague Dawley rats; assay type: in vivo; settings: rat, IV
Protocol: (§1) To further assess potency of expression and metabolic stability of lipids of the disclosure, expression of luciferase was measured following administration to rodents of a nanoparticle of the disclosure comprising an mRNA containing luciferase.
(§2) Lipid nanoparticles including DSPC as a phospholipid, cholesterol as a structural lipid, Compound I as a PEG lipid, an ionizable amino lipid of Formula (II), and an mRNA encoding luciferase were intravenously administered to CD-1 mice and Sprague Dawley rats. The level of expression was tested via bioluminescence in the liver ex vivo at 6 hours after injection.

cynomolgus monkeys = test: Luciferase level in livers ex vivo (ELISA), cynomolgus monkeys; settings: IV
Protocol: To the assess potency of expression and metabolic stability of lipids of the disclosure in different species, the expression of an mRNA was measured following administration to non-human primates of a nanoparticle of the disclosure containing the mRNA.
(§3) Lipid nanoparticles including DSPC as a phospholipid, cholesterol as a structural lipid, Compound I as a PEG lipid, an ionizable amino lipid of Formula (II), and an mRNA encoding luciferase were intravenously administered to cynomolgus monkeys. The level of luciferase in livers ex vivo was measured via ELISA at 6 hours after injection.

Sprague Dawley rats [2] = test: Parent lipid remaining in liver tissue at 24 h, rats; assay type: in vivo; settings: rat
CD-1 mice [3] = test: hEPO expression in serum after IV lipid nanoparticles with hEPO mRNA, CD-1 mice; assay type: in vivo; settings: LNP with DSPC, cholesterol, Compound I; for Mean 6 hr hEPO Concentration: serum 6 hours after injection
Protocol: To assess potency of expression and metabolic stability of lipids of the disclosure, hepatocyte protein expression (hEPO) was measured following administration to mice of a nanoparticle of the disclosure.
as §3, with “hEPO” for “luciferase”, “CD-1 mice.” for “cynomolgus monkeys.”, “concentration” for “level”, “serum” for “livers ex vivo”, “tested” for “measured via ELISA”

Sprague Dawley rats [4] = test: hEPO expression in serum after IV lipid nanoparticles with hEPO mRNA, Sprague Dawley rats; assay type: in vivo; settings: serum 6 hours after injection
Protocol: To further assess potency of expression and metabolic stability of lipids of the disclosure, hepatocyte protein expression (hEPO) was measured following administration to rats of a nanoparticle of the disclosure.
Lipid nanoparticles including DSPC as a phospholipid, cholesterol as a structural lipid, Compound I as a PEG lipid, an ionizable amino lipid of Formula (II), and an mRNA encoding hEPO were intravenously administered to Sprague Dawley rats. The concentration of hEPO in serum was tested at 6 hours after injection.

Sprague Dawley rats [5] = test: Tolerability in rats: reporter antibody construct expression (ELISA) and liver toxicity; assay type: in vivo; settings: IV
Protocol: To assess tolerability of the lipids of the disclosure, expression of a reporter antibody construct induced by sample formulations was assessed in rats.
Lipid nanoparticles including DSPC as a phospholipid, cholesterol as a structural lipid, Compound I as a PEG lipid, an ionizable amino lipid of Formula (II), and an mRNA encoding a reporter antibody construct were intravenously administered to Sprague Dawley rats. […] For the formulations tested, high levels of the reporter antibody were measured with minimal signs of liver toxicity (Table 15).

CD-1 mice [6] = test: NPI-Luciferase expression, ex vivo liver bioluminescence, CD-1 mice; assay type: in vivo; settings: mouse, IV
Protocol: as §1, §2

CD-1 mice [7] = test: Parent lipid remaining in liver at 24 h, CD-1 mice (hEPO mRNA LNPs); assay type: in vivo; settings: for Approx. Percent Total Dose of Parent Lipid Remaining at 24 h: calculation assumes a 25 g mouse with a 1.5 g liver

Row | SMILES | Mean 6 h ex vivo Liver NPI-Luciferase Total Flux (Sprague Dawley rats [1]) | Mean 6 h NPI-Luciferase Concentration (cynomolgus monkeys) | Approx. Percent Total Dose of Parent Lipid Remaining at 24 h (Sprague Dawley rats [2]) | hEPO AUC (CD-1 mice [3]) | Mean 6 hr hEPO Concentration (CD-1 mice [3]) | Mean 6 hr hEPO Concentration (Sprague Dawley rats [4]) | Mean Reporter Antibody Construct Concentration (Sprague Dawley rats [5]) | Mean 6 h ex vivo Liver NPI-Luciferase Total Flux (CD-1 mice [6]) | Parent Lipid Remaining (nmol/g liver tissue) at 24 h (CD-1 mice [7]) | Approx. Percent Total Dose of Parent Lipid Remaining at 24 h (CD-1 mice [7])
1 | CCCCCCCCC(CCCCCCCC)OC(=O)CCCCCCCN(CCCCCCCC(=O)OCCC(CCCC)CCCC)CCCNc1c(NC)c(=O)c1=O [Compound 27, 3-Butylheptyl 8-((8-(heptadecan-9-yloxy)-8-oxooctyl)(3-((2-(methylamino)-3,4-dioxocyclobut-1-en-1-yl)amino)propyl)amino)octanoate] | 1215666667 photons/second | 878 ng/g | 28% | 2.10E+07 | 1316011 mIU/mL | 664431 mIU/mL | 833698 ng/mL | 357720000 photons/second | 27 ± 4 nmol/g liver tissue | 28%
2 | CCCCCCCCC(CCCCCCCC)OC(=O)CCCCCCCN(CCO)CCCCCCCC(=O)OCCC(CCCC)CCCC [Compound 22, 3-Butylheptyl 8-((8-(heptadecan-9-yloxy)-8-oxooctyl)(2-hydroxyethyl)amino)octanoate] | 2227666667 photons/second | 1322 ng/g | <0.1%^ | 2.03E+07 | 1264530 mIU/mL |  | 1113642 ng/mL | 300960000 photons/second | <0.1 nmol/g liver tissue | <0.1%
